According to US5707966A, “Antithrombotic agents” (Eli Lilly and Company, priority 1995, dated 1998):
Where a name gives a salt, the structure may show the parent alone. Read-outs that look alike come from different tables or passages of the source.

How the values were obtained:
Type in all cases: biochemical
[1] = system: Human plasma; assay: Human plasma anticoagulation, activated partial thromboplastin time (APTT); conditions: concentration required to double the APTT, linear extrapolation
How it was run: (§1)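 Compounds added across a wide concentration range to plasma; PT measured with Thromboplastin-C, APTT after 120 s Actin incubation then 0.02 M CaCl2, TT with bovine thrombin (10 NIH units/mL). Clotting-time doubling concentrations estimated by linear extrapolation.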

[2] = system: Human plasma; assay: Human plasma anticoagulation, thrombin time (TT); conditions: concentration required to double the thrombin time, linear extrapolation
How it was run: as §1

[3] = target: T1, factor Xa (Homo sapiens, UniProt P00742); assay: Kass with factor Xa, chromogenic substrate; conditions: substrate N-Benzoyl-Ile-Glu-Gly-Arg-p-nitroanilide
T1 construct: Human factors X, Xa, IXa, XIa, and XIIa are purchased; purchased Enzyme Research Laboratories, South Bend, Ind

[4] = target: T2, Bovine trypsin (Bos taurus, UniProt P00760); assay: Kass with trypsin, chromogenic substrate; conditions: substrate N-Benzoyl-Phe-Val-Arg-p-nitroanilide
T2 construct: Bovine trypsin is purchased; purchased Worthington Biochemicals, Freehold, N.J
T2 sequence (P00760 24-246): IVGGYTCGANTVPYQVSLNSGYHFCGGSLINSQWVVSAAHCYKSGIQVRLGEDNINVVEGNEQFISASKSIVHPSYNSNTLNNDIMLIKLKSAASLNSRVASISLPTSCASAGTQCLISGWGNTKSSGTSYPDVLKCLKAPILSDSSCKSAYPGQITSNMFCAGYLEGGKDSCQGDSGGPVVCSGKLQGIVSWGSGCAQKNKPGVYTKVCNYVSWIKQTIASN

[5] = target: T3, Human plasmin (Homo sapiens, UniProt P00747); assay: Kass with plasmin, chromogenic substrate; conditions: substrate H-D-Val-Leu-Lys-p-nitroanilide
T3 construct: Human plasmin is purchased; purchased Boehringer Mannheim, Indianapolis, Ind

[6] = target: Human Thrombin (Homo sapiens, UniProt P00734); assay: Inhibition of amidase activity of thrombin (Kass)
[7] = system: Human plasma; assay: Human plasma anticoagulation, prothrombin time (PT); conditions: concentration required to double the PT, linear extrapolation
How it was run: as §1

[8] = target: T4, t-PA (Homo sapiens, UniProt P00750); assay: Kass with t-PA, chromogenic substrate; conditions: substrate H-D-Ile-Pro-Arg-p-nitroanilide
T4 construct: purchased American Diagnostica, Greenwich, Conn

[9] = mean over a range of concentrations, […]

T3 sequence (P00747 97-810): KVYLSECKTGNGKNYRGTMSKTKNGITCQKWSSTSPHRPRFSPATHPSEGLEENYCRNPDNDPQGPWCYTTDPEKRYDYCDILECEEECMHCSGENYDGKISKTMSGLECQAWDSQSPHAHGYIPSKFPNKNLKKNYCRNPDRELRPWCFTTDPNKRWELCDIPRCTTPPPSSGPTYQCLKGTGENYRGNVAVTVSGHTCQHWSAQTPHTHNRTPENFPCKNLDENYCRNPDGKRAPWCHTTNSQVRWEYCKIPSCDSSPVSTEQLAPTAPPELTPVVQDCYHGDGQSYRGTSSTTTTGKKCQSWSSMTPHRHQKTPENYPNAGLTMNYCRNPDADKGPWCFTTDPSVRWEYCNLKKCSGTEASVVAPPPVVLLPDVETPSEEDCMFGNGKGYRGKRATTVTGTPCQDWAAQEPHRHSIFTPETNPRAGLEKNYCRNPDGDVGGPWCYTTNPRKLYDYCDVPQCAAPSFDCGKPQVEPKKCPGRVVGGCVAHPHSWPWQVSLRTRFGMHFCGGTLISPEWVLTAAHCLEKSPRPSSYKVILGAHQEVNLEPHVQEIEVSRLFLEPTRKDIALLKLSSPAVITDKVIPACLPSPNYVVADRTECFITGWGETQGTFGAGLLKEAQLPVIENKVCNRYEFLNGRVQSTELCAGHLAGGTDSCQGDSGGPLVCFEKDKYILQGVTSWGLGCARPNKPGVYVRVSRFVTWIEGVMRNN
T3 sequence (P00747 97-580 partner limits assumed): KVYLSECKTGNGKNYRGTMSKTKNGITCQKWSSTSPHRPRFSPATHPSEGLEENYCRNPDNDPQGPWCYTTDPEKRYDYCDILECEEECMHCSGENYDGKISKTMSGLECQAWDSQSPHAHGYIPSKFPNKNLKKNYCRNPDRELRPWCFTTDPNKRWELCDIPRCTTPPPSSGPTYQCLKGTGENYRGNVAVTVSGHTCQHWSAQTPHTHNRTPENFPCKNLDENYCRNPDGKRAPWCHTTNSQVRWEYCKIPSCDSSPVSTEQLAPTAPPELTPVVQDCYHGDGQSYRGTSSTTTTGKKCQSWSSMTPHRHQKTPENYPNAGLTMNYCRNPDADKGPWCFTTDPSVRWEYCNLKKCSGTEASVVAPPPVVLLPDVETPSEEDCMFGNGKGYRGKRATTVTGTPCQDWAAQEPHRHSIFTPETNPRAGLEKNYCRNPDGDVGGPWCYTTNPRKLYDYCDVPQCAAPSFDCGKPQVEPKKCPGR
T1 sequence (P00742 235-488 limits assumed): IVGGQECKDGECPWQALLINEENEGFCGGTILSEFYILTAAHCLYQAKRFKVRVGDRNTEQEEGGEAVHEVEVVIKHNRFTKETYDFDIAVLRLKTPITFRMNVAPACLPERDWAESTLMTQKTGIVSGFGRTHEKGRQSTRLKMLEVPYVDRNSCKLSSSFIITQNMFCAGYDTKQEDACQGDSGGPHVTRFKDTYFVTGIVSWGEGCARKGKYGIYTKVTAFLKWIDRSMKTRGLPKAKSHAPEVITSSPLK
T1 sequence (P00742 41-179 partner limits assumed): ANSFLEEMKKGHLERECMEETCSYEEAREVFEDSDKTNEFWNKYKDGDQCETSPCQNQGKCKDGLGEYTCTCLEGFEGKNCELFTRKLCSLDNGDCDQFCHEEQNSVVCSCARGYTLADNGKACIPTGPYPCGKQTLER
T4 sequence (P00750 36-562): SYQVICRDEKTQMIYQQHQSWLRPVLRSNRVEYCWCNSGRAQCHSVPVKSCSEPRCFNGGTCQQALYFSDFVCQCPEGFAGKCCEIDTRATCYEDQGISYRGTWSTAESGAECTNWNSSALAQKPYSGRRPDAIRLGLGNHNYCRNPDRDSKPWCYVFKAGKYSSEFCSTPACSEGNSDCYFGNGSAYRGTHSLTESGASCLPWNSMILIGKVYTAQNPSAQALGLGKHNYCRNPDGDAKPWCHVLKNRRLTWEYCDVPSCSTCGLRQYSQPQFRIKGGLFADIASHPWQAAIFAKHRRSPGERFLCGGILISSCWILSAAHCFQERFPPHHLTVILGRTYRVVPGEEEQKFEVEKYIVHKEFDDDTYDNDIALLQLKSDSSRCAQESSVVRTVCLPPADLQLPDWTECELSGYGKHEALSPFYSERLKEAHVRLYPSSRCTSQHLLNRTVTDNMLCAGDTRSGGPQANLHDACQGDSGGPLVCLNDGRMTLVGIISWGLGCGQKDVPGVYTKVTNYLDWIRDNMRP

Compound	Human Plasma Anticoagulation 2× Clotting time APTT [1]	Human Plasma Anticoagulation 2× Clotting time TT [2]	Kass Xa [3]	Kass Trypsin [4]	Kass Plasmin [5]	Kass Human Thrombin [6, 9]	Human Plasma Anticoagulation 2× Clotting time PT [7]	Kass t-PA [8]	Kass Human Thrombin [6]
N=C(N)NCCCCNC(=O)[C@@H]1CCCN1C(=O)[C@@H]1NCC[C@H]2CCCC[C@H]21 [Example 61, N-[4-[(aminoiminomethyl)amino]butyl]-1-[[(4aR,8aR)-decahydro-1(R)-isoquinolinyl]carbonyl]-1-prolinamide trihydrochloride]	679 ng/mL	45 ng/mL	0.03 × 10^6 (L/mole)	1.0 × 10^6 (L/mole)	0.004 × 10^6 (L/mole)	63 × 10^6 (L/mole)	756 ng/mL	0.008 × 10^6 (L/mole)	
CC(C)CC[C@H]1C[C@@H](C(=O)NCc2ccc(C(=N)N)cc2)N(C(=O)[C@@H](CC2CCCCC2)NCC(=O)O)C1 (relative stereo) [Example 50]	460 ng/mL	35 ng/mL	4.3 × 10^6 (L/mole)	2,200 × 10^6 (L/mole)	1.8 × 10^6 (L/mole)	40 × 10^6 (L/mole)	420 ng/mL	0.04 × 10^6 (L/mole)	
N=C(N)c1cccc(CNC(=O)[C@@H]2CCCN2C(=O)[C@H](N)Cc2ccccc2)c1 [Example 16, D-Phe-Pro-m-NHCH2 C6 H4 C(NH)NH2.0.75HCl]	8,600 ng/mL	650 ng/mL	0.0051 × 10^6 (L/mole)	0.02 × 10^6 (L/mole)	0.0017 × 10^6 (L/mole)	0.97 × 10^6 (L/mole)	8,500 ng/mL	0.0012 × 10^6 (L/mole)	
O=C(O)CN[C@H](CC1CCCCC1)C(=O)N1CCC[C@H]1C(=O)NCCCC1CCNCC1 [Example 55, HO2 CCH2 -D-Cha-Pro-4-NHCH2 CH2 CH2 -piperidine.HCl]	> 91,000 ng/mL	55,800 ng/mL	< 0.001 × 10^6 (L/mole)	0.01 × 10^6 (L/mole)	< 0.001 × 10^6 (L/mole)	0.01 × 10^6 (L/mole)	> 91,000 ng/mL	< 0.001 × 10^6 (L/mole)	
EtSO2 -D-Phe-Pro-p-NHCH2 --C6 H4 C(=NH)NH2.HCl [Example 23]	86 ng/mL	7 ng/mL	0.14 × 10^6 (L/mole)	21 × 10^6 (L/mole)	0.44 × 10^6 (L/mole)	770 × 10^6 (L/mole)	120 ng/mL	0.31 × 10^6 (L/mole)	
CCS(=O)(=O)N[C@H](Cc1ccccc1)C(=O)N1CCC[C@H]1C(=O)NCCCc1ccc(C(=N)N)cc1 [Example 30, EtSO2 -D-Phe-Pro-p-NHCH2 CH2 CH2 --C6 H4 C(=NH)NH2.HCl]	14,000 ng/mL	1,000 ng/mL	0.02 × 10^6 (L/mole)	0.03 × 10^6 (L/mole)	< 0.001 × 10^6 (L/mole)	0.55 × 10^6 (L/mole)	14,400 ng/mL	< 0.001 × 10^6 (L/mole)	
D-hPro-Pro(4-cis-PhO)-p-NHCH2 --C6 H4 C(NH)NH2.2HCl [Example 22]	2,300 ng/mL	170 ng/mL	0.043 × 10^6 (L/mole)	8.5 × 10^6 (L/mole)	0.042 × 10^6 (L/mole)	3.0 × 10^6 (L/mole)	1,000 ng/mL	0.004 × 10^6 (L/mole)	
O=C(O)CN[C@H](CC1CCCCC1)C(=O)N1CCC[C@H]1C(=O)NCC1=CCNCC1 [Example 58, HO2 CCH2 -D-Cha-Pro-4-NHCH2 -3,4-dehydro-piperidine.HCl]	14,300 ng/mL	710 ng/mL	< 0.001 × 10^6 (L/mole)	0.40 × 10^6 (L/mole)	< 0.001 × 10^6 (L/mole)	0.60 × 10^6 (L/mole)	11,400 ng/mL	< 0.001 × 10^6 (L/mole)	
N=C(N)c1cccc(CCCNC(=O)[C@@H]2CCCN2C(=O)[C@@H]2NCC[C@@H]3CCCC[C@@H]32)c1 [Example 33, 1-Piq-Pro-m-NHCH2 CH2 CH2 --C6 H4 C(=NH)NH2.HCl]	59,300 ng/mL	18,900 ng/mL	0.04 × 10^6 (L/mole)	0.02 × 10^6 (L/mole)	< 0.001 × 10^6 (L/mole)	0.04 × 10^6 (L/mole)	70,900 ng/mL	< 0.001 × 10^6 (L/mole)	
CCS(=O)(=O)N[C@H](Cc1ccccc1)C(=O)N1CCC[C@H]1C(=O)NCc1cccc(NC(=N)N)c1 [Example 36, EtSO2 -D-Phe-Pro-m-NHCH2 C6 H4 NHC(NH)NH2.HCl]	> 91,000 ng/mL	7,700 ng/mL	< 0.001 × 10^6 (L/mole)	0.01 × 10^6 (L/mole)	< 0.001 × 10^6 (L/mole)	0.06 × 10^6 (L/mole)	> 91,000 ng/mL	< 0.001 × 10^6 (L/mole)	
CCS(=O)(=O)N[C@H](Cc1ccccc1)C(=O)N1[C@H](C(=O)NCc2ccc(C(=N)N)cc2)C[C@@H]2CCCC[C@@H]21 (relative stereo) [Example 45, EtSO2 -Phe-cis-Ohi-p-NHCH2 C6 H4 C(NH)NH2.HCl]	200 ng/mL	8 ng/mL	1.5 × 10^6 (L/mole)	110 × 10^6 (L/mole)	1.1 × 10^6 (L/mole)		330 ng/mL	0.77 × 10^6 (L/mole)	610
CCS(=O)(=O)N[C@H](Cc1ccccc1)C(=O)N1CCC[C@H]1C(=O)NCc1cccc(C(=N)N)c1 [Example 24, EtSO2 -D-Phe-Pro-m-NHCH2 --C6 H4 C(=NH)NH2.HCl]	25,900 ng/mL	1,000 ng/mL	< 0.001 × 10^6 (L/mole)	0.03 × 10^6 (L/mole)	< 0.001 × 10^6 (L/mole)	0.78 × 10^6 (L/mole)	25,000 ng/mL	< 0.001 × 10^6 (L/mole)	
D-hPro-N(PhCH2 CH2)Gly-p-NHCH2 --C6 H4 C(NH)NH2.2HCl [Example 21]	2,000 ng/mL	160 ng/mL	0.62 × 10^6 (L/mole)	0.96 × 10^6 (L/mole)	0.031 × 10^6 (L/mole)	3.6 × 10^6 (L/mole)	1,000 ng/mL	0.002 × 10^6 (L/mole)	
